What was measured:
Type in all cases: biochemical
GST-tagged SIK2 = GST-tagged SIK2 (Homo sapiens (Human), UniProt Q9H0K1); assay: SIK2 inhibition test (ADP-Glo Max Assay); conditions: enzyme 3 nM, AMARA Peptide 200 μM, ATP 1 mM, 2 hours room temperature
Protocol: (§1) The compounds described in Examples above were used in the SIK1, SIK2, and SIK3 inhibition test.
(§2) The inhibitory activity of the compound for SIK1, SIK2, and SIK3 enzymes was assayed by measuring the amount of ADP, an enzyme reaction product, with ADP-Glo™ Max Assay (Promega). Enzymes, specifically, GST-tagged SIK1 (Carna Biosciences, Inc.), GST-tagged SIK2 (Carna Biosciences, Inc.), and GST-tagged SIK3 (SignalChem) were prepared in a reaction buffer (15 mM tris-hydrochloric acid buffer (pH 7.5), 0.001% Triton X-100, 0.01% BSA) so that the final concentration would be 20 nM, 3 nM, and 100 nM. Enzyme solutions were thus formed. In a reaction buffer, AMARA Peptide (SignalChem) as a substrate with a final concentration of 200 μM (SIK1, SIK2) or 100 μM (SIK3), ATP (Promega) with a final concentration of 1 mM, and magnesium chloride with a final concentration of 5 mM were prepared. Substrate solutions were thus formed. The enzyme solution, the substrate solution, and a DMSO solution of a concentration of the test compound were mixed together and reacted at room temperature for 2 hours. After the reaction, ADP-Glo™ Reagent (Promega) was added, and the reaction was performed at room temperature for 30 minutes. Subsequently, ADP-Glo™ Max Detection Reagent (Promega) was added, and the reaction was performed at room temperature for 30 minutes. The emission by the luciferase reaction was measured with PHERAstar FSX (BMG LABTECH).
(§3) The inhibitory ratio (%) was calculated by: % Inhibition={1−(intensity of sample−intensity of blank (no enzyme solution added))/(intensity of control (DMSO alone)−intensity of blank)}×100. The inhibitory concentration IC50 was calculated based on 16 data values obtained in the concentration response test.

GST-tagged SIK3 = GST-tagged SIK3 (Homo sapiens (Human), UniProt Q9Y2K2); assay: SIK3 inhibition test (ADP-Glo Max Assay); conditions: enzyme 100 nM, AMARA Peptide 100 μM, ATP 1 mM, 2 hours room temperature
GST-tagged SIK3, sequence (Q9Y2K2 whole entry): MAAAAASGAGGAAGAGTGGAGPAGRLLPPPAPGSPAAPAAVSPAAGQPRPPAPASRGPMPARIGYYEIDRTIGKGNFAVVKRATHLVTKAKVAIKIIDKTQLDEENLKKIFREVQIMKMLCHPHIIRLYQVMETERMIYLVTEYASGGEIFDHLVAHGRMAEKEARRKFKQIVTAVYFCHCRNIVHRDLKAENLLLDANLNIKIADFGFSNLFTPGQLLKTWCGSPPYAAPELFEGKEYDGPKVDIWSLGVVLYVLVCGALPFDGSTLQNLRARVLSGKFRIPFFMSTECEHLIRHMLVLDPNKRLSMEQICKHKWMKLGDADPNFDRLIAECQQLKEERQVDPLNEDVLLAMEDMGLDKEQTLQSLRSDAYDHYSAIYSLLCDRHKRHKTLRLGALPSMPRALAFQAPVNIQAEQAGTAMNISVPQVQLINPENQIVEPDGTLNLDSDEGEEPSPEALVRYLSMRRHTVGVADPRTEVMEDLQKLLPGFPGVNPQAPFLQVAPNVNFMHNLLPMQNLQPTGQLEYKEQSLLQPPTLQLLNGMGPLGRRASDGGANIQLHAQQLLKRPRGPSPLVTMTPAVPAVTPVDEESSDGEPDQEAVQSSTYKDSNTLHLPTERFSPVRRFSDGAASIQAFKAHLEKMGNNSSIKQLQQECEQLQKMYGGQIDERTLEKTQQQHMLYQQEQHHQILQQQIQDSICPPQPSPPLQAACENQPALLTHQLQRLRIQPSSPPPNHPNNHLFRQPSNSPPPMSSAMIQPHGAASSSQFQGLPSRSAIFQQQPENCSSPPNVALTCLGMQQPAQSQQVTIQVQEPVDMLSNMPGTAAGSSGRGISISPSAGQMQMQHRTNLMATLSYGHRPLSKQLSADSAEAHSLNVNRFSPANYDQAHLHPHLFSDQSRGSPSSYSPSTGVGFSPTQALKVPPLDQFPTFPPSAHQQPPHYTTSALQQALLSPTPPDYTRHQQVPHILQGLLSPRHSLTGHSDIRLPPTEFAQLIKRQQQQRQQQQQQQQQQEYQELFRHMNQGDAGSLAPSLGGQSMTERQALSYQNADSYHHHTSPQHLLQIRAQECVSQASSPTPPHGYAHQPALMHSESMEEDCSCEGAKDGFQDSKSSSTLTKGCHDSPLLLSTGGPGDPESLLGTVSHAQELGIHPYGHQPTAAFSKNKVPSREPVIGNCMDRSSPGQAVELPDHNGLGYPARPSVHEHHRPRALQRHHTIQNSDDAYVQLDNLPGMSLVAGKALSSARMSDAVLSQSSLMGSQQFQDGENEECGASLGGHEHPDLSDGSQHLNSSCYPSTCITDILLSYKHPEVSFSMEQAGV
Protocol: as §1, §2, §3

GST-tagged SIK1 = GST-tagged SIK1 (Homo sapiens (Human), UniProt P57059); assay: SIK1 inhibition test (ADP-Glo Max Assay); conditions: enzyme 20 nM, AMARA Peptide 200 μM, ATP 1 mM, 2 hours room temperature
GST-tagged SIK1, sequence (P57059 whole entry): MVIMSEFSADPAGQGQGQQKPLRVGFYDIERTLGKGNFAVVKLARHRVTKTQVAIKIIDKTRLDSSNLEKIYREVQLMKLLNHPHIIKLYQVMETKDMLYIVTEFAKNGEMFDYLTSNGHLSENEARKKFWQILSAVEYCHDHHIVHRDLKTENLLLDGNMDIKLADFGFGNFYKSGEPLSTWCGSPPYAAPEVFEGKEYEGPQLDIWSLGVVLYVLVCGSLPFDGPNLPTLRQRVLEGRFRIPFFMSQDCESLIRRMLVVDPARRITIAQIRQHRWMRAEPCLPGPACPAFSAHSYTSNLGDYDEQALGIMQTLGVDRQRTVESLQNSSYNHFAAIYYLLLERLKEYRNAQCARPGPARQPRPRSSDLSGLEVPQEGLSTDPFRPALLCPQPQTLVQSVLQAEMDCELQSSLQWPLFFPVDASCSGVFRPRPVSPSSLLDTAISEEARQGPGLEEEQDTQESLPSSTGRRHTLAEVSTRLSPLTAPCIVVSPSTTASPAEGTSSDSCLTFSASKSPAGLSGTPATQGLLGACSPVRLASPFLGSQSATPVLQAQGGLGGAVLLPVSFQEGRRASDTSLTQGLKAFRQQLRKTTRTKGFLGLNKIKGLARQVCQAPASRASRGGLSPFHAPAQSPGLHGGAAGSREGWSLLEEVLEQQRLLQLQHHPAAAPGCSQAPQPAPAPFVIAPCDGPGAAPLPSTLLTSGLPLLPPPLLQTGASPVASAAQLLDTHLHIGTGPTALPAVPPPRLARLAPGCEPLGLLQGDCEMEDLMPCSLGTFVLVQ
Protocol: as §1, §2, §3

GST-tagged SIK2, sequence (Q9H0K1 whole entry): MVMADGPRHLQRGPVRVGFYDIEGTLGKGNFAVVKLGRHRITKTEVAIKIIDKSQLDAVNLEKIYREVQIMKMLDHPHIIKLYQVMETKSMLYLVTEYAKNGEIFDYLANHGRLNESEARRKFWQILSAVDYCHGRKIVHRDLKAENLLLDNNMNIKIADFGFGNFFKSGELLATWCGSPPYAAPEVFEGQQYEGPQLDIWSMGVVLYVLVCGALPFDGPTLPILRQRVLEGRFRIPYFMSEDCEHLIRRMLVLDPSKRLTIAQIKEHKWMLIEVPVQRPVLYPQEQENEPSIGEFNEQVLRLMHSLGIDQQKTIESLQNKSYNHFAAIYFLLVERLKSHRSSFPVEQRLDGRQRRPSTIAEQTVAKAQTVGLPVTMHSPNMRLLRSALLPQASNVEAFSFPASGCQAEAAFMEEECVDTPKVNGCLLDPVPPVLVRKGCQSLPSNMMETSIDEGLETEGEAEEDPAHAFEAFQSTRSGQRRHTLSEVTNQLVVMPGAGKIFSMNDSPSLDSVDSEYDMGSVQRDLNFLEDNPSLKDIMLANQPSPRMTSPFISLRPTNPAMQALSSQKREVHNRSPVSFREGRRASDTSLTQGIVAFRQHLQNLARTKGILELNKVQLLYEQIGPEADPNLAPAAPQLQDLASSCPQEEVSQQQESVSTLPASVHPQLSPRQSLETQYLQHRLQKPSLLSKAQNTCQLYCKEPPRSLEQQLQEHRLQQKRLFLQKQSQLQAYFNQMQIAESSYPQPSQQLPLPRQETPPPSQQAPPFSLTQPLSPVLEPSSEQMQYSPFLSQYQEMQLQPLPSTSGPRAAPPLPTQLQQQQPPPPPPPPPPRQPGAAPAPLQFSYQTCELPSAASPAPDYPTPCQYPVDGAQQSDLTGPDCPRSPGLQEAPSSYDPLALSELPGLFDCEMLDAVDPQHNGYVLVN

| SMILES | IC50 (GST-tagged SIK2) | IC50 (GST-tagged SIK3) | IC50 (GST-tagged SIK1) |
| --- | --- | --- | --- |
| COc1cc(-c2c3c(C#N)cc(-c4cnn(CC(C)(C)O)c4)cc3nn2C)cc(OC(F)F)c1C(=O)N1CC(O)(C(F)(F)F)C1 [Example 16] | 13.8 nM | 3.2 nM | 8.7 nM |
| COc1cc(-c2c3c(C#N)cc(-c4cnn(CC(=O)N(C)C)c4)cc3nn2C)cc(OC(F)F)c1C(=O)N1CC(O)(C(F)(F)F)C1 [Example 17, 2-[4-[4-cyano-3-[3-(difluoromethoxy)-4-[3-hydroxy-3-(trifluoromethyl)azetidin-1-carbonyl]-5-methoxyphenyl]-2-methylindazol-6-yl]pyrazol-1-yl]-N,N-dimethylacetamide] | 8.5 nM | 7.1 nM | 5.4 nM |
| CCn1cc(-c2cc(C#N)c3c(-c4cc(OC)c(C(=O)N[C@@H]5C[C@@H]5F)c(OC(F)F)c4)n(C)nc3c2)cn1 [Example 18, 4-[4-cyano-6-(1-ethylpyrazol-4-yl)-2-methylindazol-3-yl]-2-(difluoromethoxy)-N-[(1R,2S)-2-fluorocyclopropyl]-6-methoxybenzamide] | 3.1 nM | 7 nM | 1.4 nM |
| COc1cc(-c2c3c(C#N)cc(-c4cnn(CCN(C)C)c4)cc3nn2C)cc(OC(F)F)c1C(=O)N[C@@H]1C[C@@H]1F [Example 19, 4-[4-cyano-6-[1-[2-(dimethylamino)ethyl]pyrazol-4-yl]-2-methylindazol-3-yl]-2-(difluoromethoxy)-N-[(1R,2S)-2-fluorocyclopropyl]-6-methoxybenzamide] | 1.3 nM | 8.7 nM | 2.5 nM |
| COc1cc(-c2c3c(C#N)cc(-c4cnn(C(C)(C)C)c4)cc3nn2C)cc(OC(F)F)c1C(=O)N[C@@H]1C[C@@H]1F [Example 20, 4-[6-(1-tert-butylpyrazol-4-yl)-4-cyano-2-methylindazol-3-yl]-2-(difluoromethoxy)-N-[(1R,2S)-2-fluorocyclopropyl]-6-methoxybenzamide] | 5.8 nM | 13.7 nM | 4.4 nM |
| COc1cc(-c2c3c(C#N)cc(-c4cc(C)ns4)cc3nn2C)cc(OC(F)F)c1C(=O)N[C@@H]1C[C@@H]1F [Example 21, 4-[4-cyano-2-methyl-6-(3-methyl-1,2-thiazol-5-yl)indazol-3-yl]-2-(difluoromethoxy)-N-[(1R,2S)-2-fluorocyclopropyl]-6-methoxybenzamide] | 5.6 nM | 4 nM | 16.9 nM |
| COc1cc(-c2c3c(C#N)cc(-c4cnn(C5CCOC5)c4)cc3nn2C)cc(OC(F)F)c1C(=O)N[C@@H]1C[C@@H]1F (stereo partly drawn) [Example 22, 4-[4-cyano-2-methyl-6-[1-(oxolan-3-yl)pyrazol-4-yl]indazol-3-yl]-2-(difluoromethoxy)-N-[(1R,2S)-2-fluorocyclopropyl]-6-methoxybenzamide] | 3.2 nM | 7.7 nM | 2 nM |
| COc1cc(-c2c3c(C#N)cc(-c4cnn(C)c4)cc3nn2C)cc(OC(F)F)c1C(=O)N[C@@H]1CC1(F)F [Example 23, 4-[4-cyano-2-methyl-6-(1-methylpyrazol-4-yl)indazol-3-yl]-N-[(1R)-2,2-difluorocyclopropyl]-2-(difluoromethoxy)-6-methoxybenzamide] | 2.5 nM | 5 nM | 2.1 nM |
| COc1cc(-c2c3c(C#N)cc(-c4cc[nH]n4)cc3nn2C)cc(OC(F)F)c1C(=O)N[C@@H]1C[C@@H]1F [Example 24, 4-[4-cyano-2-methyl-6-(1H-pyrazol-3-yl)indazol-3-yl]-2-(difluoromethoxy)-N-[(1R,2S)-2-fluorocyclopropyl]-6-methoxybenzamide] | 6.5 nM | 11.8 nM | 6.6 nM |
| COc1cc(-c2c3c(C#N)cc(-c4cnn(C)c4)cc3nn2C)cc(OC(F)F)c1C(=O)N1CC(O)(C(F)F)C1 [Example 25, 3-[3-(difluoromethoxy)-4-[3-(difluoromethyl)-3-hydroxyazetidin-1-carbonyl]-5-methoxyphenyl]-2-methyl-6-(1-methylpyrazol-4-yl)indazole-4-carbonitrile] | 10.5 nM | 12.8 nM | 9.6 nM |
| COc1cc(-c2c3c(OCC4COC4)cc(-c4cnn(C)c4)cc3nn2C)cc(OC(F)F)c1C(=O)N1CC(O)(C(F)(F)F)C1 [Example 26, [2-(difluoromethoxy)-6-methoxy-4-[2-methyl-6-(1-methylpyrazol-4-yl)-4-(oxetan-3-ylmethoxy)indazol-3-yl]phenyl]-[3-hydroxy-3-(trifluoromethyl)azetidin-1-yl]methanone] | 4.3 nM | 11.2 nM | 7.1 nM |

The remaining lines, values ahead:

| IC50 (GST-tagged SIK2) | IC50 (GST-tagged SIK3) | IC50 (GST-tagged SIK1) | SMILES |
| --- | --- | --- | --- |
| 12.7 nM | 16 nM | 13.7 nM | COc1cc(-c2c3c(OCC4CCC4)cc(-c4cnn(C)c4)cc3nn2C)cc(OC(F)F)c1C(=O)N1CC(O)(C(F)(F)F)C1 [Example 27, [4-[4-(cyclobutylmethoxy)-2-methyl-6-(1-methylpyrazol-4-yl)indazol-3-yl]-2-(difluoromethoxy)-6-methoxyphenyl]-[3-hydroxy-3-(trifluoromethyl)azetidin-1-yl]methanone] |
| 4.7 nM | 13.6 nM | 7.3 nM | COc1cc(-c2c3c(OCCCO)cc(-c4cnn(C)c4)cc3nn2C)cc(OC(F)F)c1C(=O)N1CC(O)(C(F)(F)F)C1 [Example 28, [2-(difluoromethoxy)-4-[4-(3-hydroxypropoxy)-2-methyl-6-(1-methylpyrazol-4-yl)indazol-3-yl]-6-methoxyphenyl]-[3-Hydroxy-3-(trifluoromethyl)azetidin-1-yl]methanone] |
| 10.3 nM | 13.2 nM | 8.6 nM | COc1cc(-c2c3c(OCC4CC4)cc(-c4cnn(C)c4)cc3nn2C)cc(OC(F)F)c1C(=O)N1CC(O)(C(F)(F)F)C1 [Example 29, [4-[4-(cyclopropylmethoxy)-2-methyl-6-(1-methylpyrazol-4-yl)indazol-3-yl]-2-(difluoromethoxy)-6-methoxyphenyl]-[3-hydroxy-3-(trifluoromethyl)azetidin-1-yl]methanone] |
| 6.6 nM | 3.6 nM | 5.1 nM | COc1cc(-c2c3c(OCC(F)(F)F)cc(-c4cnn(C)c4)cc3nn2C)cc(OC(F)F)c1C(=O)N1CC(O)(C(F)(F)F)C1 [Example 30, [2-(difluoromethoxy)-6-methoxy-4-[2-methyl-6-(1-methylpyrazol-4-yl)-4-(2,2,2-trifluoroethoxy)indazol-3-yl]phenyl]-[3-hydroxy-3-(trifluoromethyl)azetidin-1-yl]methanone] |
| 3.3 nM | 7.8 nM | 3.7 nM | COc1cc(-c2c3c(C#N)cc(-c4cnn(CC(F)F)c4)cc3nn2C)cc(OC(F)F)c1C(=O)N[C@@H]1C[C@@H]1F [Example 31, 4-[4-cyano-6-[1-(2,2-difluoroethyl)pyrazol-4-yl]-2-methylindazol-3-yl]-2-(difluoromethoxy)-N-[(1R, 2S)-2-fluorocyclopropyl]-6-methoxybenzamide] |
| 4.5 nM | 8.9 nM | 5 nM | COc1cc(-c2c3c(C#N)cc(-c4cnn(CC5CC5)c4)cc3nn2C)cc(OC(F)F)c1C(=O)N[C@@H]1C[C@@H]1F [Example 32, 4-[4-cyano-6-[1-(cyclopropylmethyl)pyrazol-4-yl]-2-methylindazol-3-yl]-2-(difluoromethoxy)-N-[(1R, 2S)-2-fluorocyclopropyl]-6-methoxybenzamide] |
| 2.6 nM | 8.5 nM | 4.6 nM | COc1cc(-c2c3c(C#N)cc(-c4cnn(C(C)C)c4)cc3nn2C)cc(OC(F)F)c1C(=O)N[C@@H]1C[C@@H]1F [Example 33, 4-[4-cyano-2-methyl-6-(1-propan-2-ylpyrazol-4-yl)indazol-3-yl]-2-(difluoromethoxy)-N-[(1R,2S)-2-fluorocyclopropyl]-6-methoxybenzamide] |
| 1 nM | 2.9 nM | 0.4 nM | COc1cc(-c2c3c(OCc4cccnc4)cc(-c4cnn(C)c4)cc3nn2C)cc(OC(F)F)c1C(=O)N1CC(O)(C(F)(F)F)C1 [Example 34, [2-(difluoromethoxy)-6-methoxy-4-[2-methyl-6-(1-methylpyrazol-4-yl)-4-(pyridin-3-ylmethoxy)indazol-3-yl]phenyl]-[3-hydroxy-3-(trifluoromethyl)azetidin-1-yl]methanone] |
| 3 nM | 12.9 nM | 1.9 nM | COc1cc(-c2c3c(OCc4ccncc4)cc(-c4cnn(C)c4)cc3nn2C)cc(OC(F)F)c1C(=O)N1CC(O)(C(F)(F)F)C1 [Example 35, [2-(difluoromethoxy)-6-methoxy-4-[2-methyl-6-(1-methylpyrazol-4-yl)-4-(pyridin-4-ylmethoxy)indazol-3-yl]phenyl]-[3-hydroxy-3-(trifluoromethyl)azetidin-1-yl]methanone] |
